Our source for the IC50 values is US20070270418A1, “Inhibitors of P38 and Methods of Using the Same” (priority 2003, published 2007).

Structures are written as SMILES. Bounds are passed on as bounds.

The target of this assay is T1, Src^p60 (Homo sapiens, UniProt P12931).
T1 construct: purchased Upstate (Charlottesville, Va.)
T1 sequence (P12931 whole entry): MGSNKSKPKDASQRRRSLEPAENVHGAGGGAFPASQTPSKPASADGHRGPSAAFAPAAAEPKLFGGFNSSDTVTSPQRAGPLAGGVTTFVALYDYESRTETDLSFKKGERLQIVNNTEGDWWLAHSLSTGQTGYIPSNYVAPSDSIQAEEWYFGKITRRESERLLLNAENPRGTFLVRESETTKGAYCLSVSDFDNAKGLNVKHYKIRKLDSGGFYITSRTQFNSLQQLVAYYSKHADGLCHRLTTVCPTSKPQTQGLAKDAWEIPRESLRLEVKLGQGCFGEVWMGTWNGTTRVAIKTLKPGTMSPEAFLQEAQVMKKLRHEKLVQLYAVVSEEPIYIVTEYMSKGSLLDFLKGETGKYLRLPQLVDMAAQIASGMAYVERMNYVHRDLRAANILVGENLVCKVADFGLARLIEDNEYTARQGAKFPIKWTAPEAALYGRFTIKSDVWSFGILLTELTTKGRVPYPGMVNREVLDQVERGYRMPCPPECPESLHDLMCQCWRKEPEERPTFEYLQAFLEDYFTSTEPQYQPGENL
The assay is described as follows: Src^p60 peptide phosphorylation, time resolved fluorescence. Type of assay: biochemical. The method, then:
A selectivity panel is used to test the cross-reactivity of compounds of the invention with the β and γ isoforms of p38 MAP kinase, Src^p60 and JNK2α2. The p38β, p38γ, and JNK2α2 assays are described in Example 4. The Src^p60 assay measures the ability of compounds to inhibit Src^p60-catalyzed phosphorylation of a peptide substrate.
Compounds are serially diluted in DMSO and 1 μL of test compound at 25× final concentration is used. The vehicle control receives DMSO only. Test compounds are pre-incubated with 10 μL of water containing 5.3 units of Src^p60 enzyme (Upstate, Charlottesville, Va.) at room temperature for 15 minutes. […] The reactions are incubated for 1 hr at room temperature. Time resolved fluorescence is read at 665 and 615 nm using the Victor V program LANCE 615/665 on a Victor^2 V plate reader (Perkin Elmer Life Sciences).
In general, IC50 refers to the point on the concentration scale where inhibition reaches its midpoint. In the case of `CN1[C@@H]2CC[C@H]1C[C@@H](Nc1nccc(-c3c(-c4ccc(F)cc4)nc4occn34)n1)C2` [CCLXXXI], the half-maximal inhibitory concentration (IC50) is greater than 9.03 µM. The value for `CS(=O)(=O)N1CCC(Nc2nccc(-c3c(-c4ccc(F)cc4)nc4occn34)n2)CC1` [CCLXXIX] was greater than 64 µM. The value for `Fc1ccc(-c2nc3occn3c2-c2ccnc(N[C@@H]3CN4CCC3CC4)n2)cc1` [LXXI] was 12.9 µM; that for `Fc1ccc(-c2nc3occn3c2-c2ccnc(N[C@H]3CN4CCC3CC4)n2)cc1` [LXXXVII] was 25.9 µM. `Fc1ccc(-c2nc3occn3c2-c2ccnc(NC3CN4CCC3CC4)n2)cc1` (centres unmarked) [LXXXIV] yielded a half-maximal inhibitory concentration (IC50) greater than 29.5 µM.
